Assay [1] has as its system Aspergillus flavus. The assay can be described thus: Antimicrobial activity against Aspergillus flavus at 1 mg/mL by agar-well diffusion assay. The class given is functional. In general terms: Agar diffusion results depend on both activity and mobility in agar.
In assay [2] the test system is Pseudomonas aeruginosa. Kind of assay: Antimicrobial activity against Pseudomonas aeruginosa at 1 mg/mL by agar-well diffusion assay. The class given is functional, organism-based.
Assay [3] has as its system Candida albicans. The assay can be described thus: Antifungal activity against Candida albicans NIH B311 infected in mouse tissue-burden model assessed as reduction in number of recovered colony-forming units assessed per mg of kidney at 3.5 mg/kg, ip administered 7 and 24 hrs after infection measured 16 hrs after final injection by tenfold serial dilution method relative to control. The class given is functional. The conditions noted are these: route intraperitoneal. Set-up: scale not given: the % may be the effect or the level left.

The test system of assay [4] is Candida albicans. Kind of assay: Antifungal activity against Candida albicans NIH B311 infected in mouse assessed as reduction in number of recovered colony-forming units assessed per mg of kidney at 3 mg/kg, ip administered 7 and 24 hrs after infection measured 16 hrs after final injection by tenfold serial dilution method relative to control. The class given is functional. Set-up: scale not given: the % may be the effect or the level left. The conditions noted are these: route intraperitoneal.

For assay [5], the system named is Bacillus subtilis. The assay can be described thus: Antimicrobial activity against Bacillus subtilis at 1 mg/mL by agar-well diffusion assay. The class given is functional, organism-based.
Assay [6] relates to Aspergillus fumigatus. Kind of assay: Antimicrobial activity against Aspergillus fumigatus at 1 mg/mL by agar-well diffusion assay. The class given is functional.
Assay [7] has as its system Cryptococcus neoformans. The assay can be described thus: Antimicrobial activity against Cryptococcus neoformans at 1 mg/mL by agar-well diffusion assay. The class given is functional.
The test system of assay [8] is Mycobacterium intracellulare. The assay can be described thus: Antimicrobial activity against Mycobacterium intracellular at 1 mg/mL by agar-well diffusion assay. The class given is functional.
The test system of assay [9] is Staphylococcus aureus. Kind of assay: Antimicrobial activity against Staphylococcus aureus at 1 mg/mL by agar-well diffusion assay. The class given is functional, organism-based.
Assay [10] deals with Nannizzia gypsea. The assay can be described thus: Antimicrobial activity against Microsporum gypseum at 1 mg/mL by agar-well diffusion assay. The class given is functional.
Assay [11] concerns Candida albicans. The assay can be described thus: Antifungal activity against Candida albicans NIH B311 infected in mouse assessed as reduction in number of recovered colony-forming units assessed per mg of kidney at 7 mg/kg, ip administered 7 and 24 hrs after infection measured 16 hrs after final injection by tenfold serial dilution method relative to control. The class given is functional. The note with it: route intraperitoneal. Set-up: scale not given: the % may be the effect or the level left.

The test system of assay [12] is Trichophyton mentagrophytes. The assay can be described thus: Antimicrobial activity against Trichophyton mentagrophytes at 1 mg/mL by agar-well diffusion assay. The class given is functional.
The test system of assay [13] is Saccharomyces cerevisiae. Kind of assay: Antimicrobial activity against Saccharomyces cerevisiae at 1 mg/mL by agar-well diffusion assay. The class given is functional, organism-based.
Assay [14] relates to Candida albicans. The assay can be described thus: Antifungal activity against Candida albicans NIH B311 infected in mouse assessed as reduction in number of recovered colony-forming units assessed per mg of kidney at 20 mg/kg, ip administered 7 and 24 hrs after infection measured 16 hrs after final injection by tenfold serial dilution method relative to control. The class given is functional, organism-based. Set-up: dose 20 mg/kg.

Assay [15] relates to Candida albicans. Kind of assay: Antimicrobial activity against Candida albicans at 1 mg/mL by agar-well diffusion assay. The class given is functional. The conditions noted are these: Candida albicans; read-out: IZ.
The subject of assay [16] is Escherichia coli. Kind of assay: Antimicrobial activity against Escherichia coli at 1 mg/mL by agar-well diffusion assay. The class given is functional, organism-based.

The structures appear in SMILES notation. Activity calls are given as the source filed them. The rule behind the calls is not given here.

As for `COC(=O)C1=CC[C@@]23CC[C@@H]([C@@](C)(/C=C/C=C(\C)C(=O)O[C@@H]4O[C@H](CO)[C@@H](O)[C@H](O)[C@H]4O)OC2=O)[C@@]3(OC(C)=O)CC1`, the outcome in assay [1], in assay [2], in [5], in [6], in [7] and in assay [8] was inactive. Moreover, the result in assay [9], in assay [10], in assay [12], in assay [13], in assay [14] and in assay [16] was inactive. Also, the Activity in assay [3] was determined as 10%; in assay [4], 9.91%; in [11] it was 46.59%. Moreover, the zone of inhibition at 1000 µg/mL in assay [15] is below 1 mm.

For the origin of these results see ChEMBL document CHEMBL1159211, “Antifungal evaluation of pseudolaric acid B, a major constituent of Pseudolarix kaempferi” (J Nat Prod, 1995).
